Assay [1] concerns melanoma cell lines. The assay is described as follows: Cell based assay, cell viability (CellTiter-Glo), melanoma cell lines. To be noted: Homo sapiens; LOX-IMVI cell line. In a few lines: (§1)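 Commercial tumour lines, detached with trypsin-EDTA, were seeded and incubated 24 h. They were then dosed to 0–2 μM final, grown 72 h, and assessed for viability using CellTiter-Glo.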
On the technique in general: In ATP-based viability assays light output follows the ATP content of the culture.

For assay [2], the system named is colorectal cancer cell lines (e.g. DLD-1, HCT 116, SW620, HCT-15, HCT-8, RKO). The assay is described as follows: Cell based assay, cell viability (CellTiter-Glo), colorectal cancer cell lines. In a few lines: as §1
Where [3] appears, read: Homo sapiens, DLD-1, 72 hours treatment, read-out: IC50, colorectal cancer cell line DLD-1.
The mark [4] stands for this setting: Homo sapiens, HCT 116, 72 hours treatment, read-out: IC50, colorectal cancer cell line HCT 116.
[5] abbreviates: Homo sapiens, HCT-8, 72 hours treatment, read-out: IC50, colorectal cancer cell line HCT-8.
[6] abbreviates: Homo sapiens, HCT-15, 72 hours treatment, read-out: IC50, colorectal cancer cell line HCT-15.
Where [7] appears, read: Homo sapiens, HT-29, 72 hours treatment, read-out: IC50, colorectal cancer cell line HT-29.
Setting [8] is: Homo sapiens, LoVo, 72 hours treatment, read-out: IC50, colorectal cancer cell line LoVo.
Setting [9] is: Homo sapiens, SW480, 72 hours treatment, read-out: IC50, colorectal cancer cell line SW480.
Where [10] appears, read: Homo sapiens, SW-620, SW620, 72 hours treatment, read-out: IC50, colorectal cancer cell line SW620.
Setting [11] is: RKO, 72 hours treatment, read-out: IC50, colorectal cancer cell line RKO.

Read-outs that look alike come from different tables or passages of the source.

In general, IC50 refers to the concentration at which inhibition is half-maximal. For `CC(=O)c1c([S+]([O-])Cc2ccc(F)cc2F)[nH]c2c(Br)ccc(Cl)c2c1=O` (stereo not shown) [Compound 29, 3-acetyl-8-bromo-5-chloro-2-((2,4-difluorobenzyl)sulfinyl)quinolin-4(1H)-one], the IC50 is 1240 nM in assay [1]; 870 nM in assay [2] (setting [3]); 1210 nM in assay [2] (setting [4]); 1710 nM in assay [2] (setting [5]); 1400 nM in assay [2] (setting [6]); > 10000 nM in assay [2] (setting [7]). For the same compound, the IC50 in assay [2] (setting [8]) was > 2000 nM; in assay [2] (setting [9]), > 2000 nM; in assay [2] (setting [10]) it was 1380 nM; in assay [2] (setting [11]), 1570 nM.

`CC(=O)c1c([S+]([O-])Cc2ccc(F)c(Cl)c2)[nH]c2c(Br)ccc(Cl)c2c1=O` (stereo not shown) [Compound 31, 3-acetyl-8-bromo-5-chloro-2-((3-chloro-4-fluorobenzyl)sulfinyl)quinolin-4(1H)-one]: the IC50 in assay [1] was 1110 nM; in assay [2] (setting [3]), 820 nM; in assay [2] (setting [4]), 1180 nM; in assay [2] (setting [5]), 1420 nM; in assay [2] (setting [6]), 1250 nM; in assay [2] (setting [7]) it was > 10000 nM. The IC50 in assay [2] (setting [8]) is > 2000 nM; in assay [2] (setting [9]), 1660 nM; in assay [2] (setting [10]) it was 1350 nM; in assay [2] (setting [11]), 1420 nM.

In the case of `CC(=O)c1c([S+]([O-])Cc2ccc([N+](=O)[O-])cc2)[nH]c2c(Br)ccc(Cl)c2c1=O` (stereo not shown) [Compound 33, 3-acetyl-8-bromo-5-chloro-2-((4-nitrobenzyl)sulfinyl)quinolin-4(1H)-one], the IC50 was 1130 nM in assay [1]; 940 nM in assay [2] (setting [3]); 1330 nM in assay [2] (setting [4]); 1650 nM in assay [2] (setting [5]); 1530 nM in assay [2] (setting [6]); > 10000 nM in assay [2] (setting [7]). For the same compound, the IC50 in assay [2] (setting [8]) was > 2000 nM; in assay [2] (setting [9]), > 2000 nM; in assay [2] (setting [10]), 1510 nM; in assay [2] (setting [11]), 1500 nM.

For the compound `CC(=O)c1c(S(=O)(=O)Cc2ccccc2)[nH]c2c(Br)ccc(Cl)c2c1=O` [Compound 34, 3-acetyl-2-(benzylsulfonyl)-8-bromo-5-chloroquinolin-4(1H)-one], the IC50 was 1630 nM in assay [1]; 1320 nM in assay [2] (setting [3]); 1840 nM in assay [2] (setting [4]); > 2000 nM in assay [2] (setting [5]); 1950 nM in assay [2] (setting [6]); > 10000 nM in assay [2] (setting [7]). The IC50 was > 2000 nM in assay [2] (setting [8]), > 2000 nM in assay [2] (setting [9]), 1870 nM in assay [2] (setting [10]) and > 2000 nM in assay [2] (setting [11]).

In the case of `CC(=O)c1c([S+]([O-])Cc2cc(Cl)ccc2Cl)[nH]c2c(Br)ccc(Cl)c2c1=O` (stereo not shown) [Compound 44, 3-acetyl-8-bromo-5-chloro-2-((2,5-dichlorobenzyl)sulfinyl)quinolin-4(1H)-one], the IC50 in assay [1] was 1640 nM; in assay [2] (setting [3]), 890 nM; in assay [2] (setting [4]) it was 1200 nM; in assay [2] (setting [5]), 1660 nM; in assay [2] (setting [6]), 1480 nM; in assay [2] (setting [7]), > 10000 nM. The IC50 in assay [2] (setting [8]) is > 2000 nM; in assay [2] (setting [9]), 1340 nM; in assay [2] (setting [10]) it was 1450 nM; in assay [2] (setting [11]), 1150 nM.

Consider `CC(=O)c1c([S+]([O-])Cc2cc(F)cc(F)c2)[nH]c2c(Br)ccc(Cl)c2c1=O` (stereo not shown) [Compound 46, 3-acetyl-8-bromo-5-chloro-2-((3,5-difluorobenzyl)sulfinyl)quinolin-4(1H)-one], for which the IC50 in assay [1] is 1570 nM; in assay [2] (setting [3]) it was 1260 nM; in assay [2] (setting [4]), 1820 nM; in assay [2] (setting [5]), > 2000 nM; in assay [2] (setting [6]), 1940 nM; in assay [2] (setting [7]), > 10000 nM. The IC50 in assay [2] (setting [8]) was > 2000 nM; in assay [2] (setting [9]) it was > 2000 nM; in assay [2] (setting [10]), 1750 nM; in assay [2] (setting [11]) it was 1830 nM.

For the compound `CC(=O)c1c([S+]([O-])Cc2cccc(F)c2)[nH]c2c(Br)ccc(Cl)c2c1=O` (stereo not shown) [Compound 50, 3-acetyl-8-bromo-5-chloro-2-((3-fluorobenzyl)sulfinyl)quinolin-4(1H)-one], the IC50 was 1510 nM in assay [1]; 990 nM in assay [2] (setting [3]); 1390 nM in assay [2] (setting [4]); 1990 nM in assay [2] (setting [5]); 1590 nM in assay [2] (setting [6]); > 10000 nM in assay [2] (setting [7]). Moreover, the IC50 was > 2000 nM in assay [2] (setting [8]), > 2000 nM in assay [2] (setting [9]), 1580 nM in assay [2] (setting [10]) and 1770 nM in assay [2] (setting [11]).

Turning to `CC(=O)c1c([S+]([O-])Cc2cc(C)on2)[nH]c2c(Br)ccc(Cl)c2c1=O` (stereo not shown) [Compound 51, 3-acetyl-8-bromo-5-chloro-2-(((5-methylisoxazol-3-yl)methyl)sulfinyl)quinolin-4(1H)-one], the IC50 in assay [1] was 1460 nM; in assay [2] (setting [3]) it was 660 nM; in assay [2] (setting [4]), 840 nM; in assay [2] (setting [5]) it was 1210 nM; in assay [2] (setting [6]) it was 1010 nM; in assay [2] (setting [7]) it was > 10000 nM. For the same compound, the IC50 in assay [2] (setting [8]) came out at 1640 nM; in assay [2] (setting [9]) it was 950 nM; in assay [2] (setting [10]) it was 1000 nM; in assay [2] (setting [11]) it was 1100 nM.

For the compound `COc1cccc(C[S+]([O-])c2[nH]c3c(Br)ccc(Cl)c3c(=O)c2C(C)=O)c1` (stereo not shown) [Compound 55, 3-acetyl-8-bromo-5-chloro-2-((3-methoxybenzyl)sulfinyl)quinolin-4(1H)-one], the IC50 in assay [1] is 1620 nM; in assay [2] (setting [3]), 1150 nM; in assay [2] (setting [4]) it was 1810 nM; in assay [2] (setting [5]), > 2000 nM; in assay [2] (setting [6]) it was 1810 nM; in assay [2] (setting [7]), > 10000 nM. The IC50 in assay [2] (setting [8]) was > 2000 nM; in assay [2] (setting [9]) it was > 2000 nM; in assay [2] (setting [10]), 1910 nM; in assay [2] (setting [11]), > 2000 nM.

Turning to `CC(=O)c1c([S+]([O-])Cc2ccc([N+](=O)[O-])cc2)[nH]c2c(Cl)ccc(Cl)c2c1=O` (stereo not shown) [Compound 57, 3-acetyl-5,8-dichloro-2-((4-nitrobenzyl)sulfinyl)quinolin-4(1H)-one], the IC50 in assay [1] was > 2000 nM; in assay [2] (setting [3]) it was > 2000 nM; in assay [2] (setting [4]), > 2000 nM; in assay [2] (setting [5]), > 2000 nM; in assay [2] (setting [6]) it was > 2000 nM; in assay [2] (setting [7]), > 10000 nM. Moreover, the IC50 in assay [2] (setting [8]), in assay [2] (setting [9]), in assay [2] (setting [10]) and in assay [2] (setting [11]) was > 2000 nM each time.

Regarding `COc1cc(C[S+]([O-])c2[nH]c3c(Br)ccc(Cl)c3c(=O)c2C(C)=O)cc(OC)c1` (stereo not shown) [Compound 59, 3-acetyl-8-bromo-5-chloro-2-((3,5-dimethoxybenzyl)sulfinyl)quinolin-4(1H)-one], the IC50 in assay [1] is 1060 nM; in assay [2] (setting [3]), 890 nM; in assay [2] (setting [4]) it was 1110 nM; in assay [2] (setting [5]), 1500 nM; in assay [2] (setting [6]) it was 1270 nM; in assay [2] (setting [7]), > 10000 nM. Also, the IC50 in assay [2] (setting [8]) is > 2000 nM; in assay [2] (setting [9]), > 2000 nM; in assay [2] (setting [10]) it was 1350 nM; in assay [2] (setting [11]), 1560 nM.

`CC(=O)c1c([S+]([O-])Cc2ccc(C(C)(C)C)cc2)[nH]c2c(Br)ccc(Cl)c2c1=O` (stereo not shown) [Compound 60, 3-acetyl-8-bromo-2-((4-(tert-butyl)benzyl)sulfinyl)-5-chloroquinolin-4(1H)-one]: the IC50 in assay [1] was 1670 nM; in assay [2] (setting [3]) it was 1480 nM; in assay [2] (setting [4]), 1940 nM; in assay [2] (setting [5]), > 2000 nM; in assay [2] (setting [6]), 1800 nM; in assay [2] (setting [7]), > 10000 nM. Besides, the IC50 in assay [2] (setting [8]), in assay [2] (setting [9]), in assay [2] (setting [10]) and in assay [2] (setting [11]) was > 2000 nM in each case.

Consider `CC(=O)c1c([S+]([O-])Cc2ccc([S+]([O-])C(F)(F)F)cc2)[nH]c2c(Br)ccc(Cl)c2c1=O` (stereo not shown) [Compound 64, 3-acetyl-8-bromo-5-chloro-2-((4-((trifluoromethyl)sulfinyl)benzyl)sulfinyl)quinolin-4(1H)-one], for which the half-inhibitory concentration (IC50) is 1050 nM in assay [1]; 1370 nM in assay [2] (setting [4]); 1630 nM in assay [2] (setting [5]); 1360 nM in assay [2] (setting [6]); > 10000 nM in assay [2] (setting [7]); > 2000 nM in assay [2] (setting [8]). Besides, the IC50 is > 2000 nM in assay [2] (setting [9]), 1650 nM in assay [2] (setting [10]) and 1690 nM in assay [2] (setting [11]).

On to `CC(=O)c1c([S+]([O-])Cc2ccc(C(F)(F)F)cc2)[nH]c2c(Br)ccc(Cl)c2c1=O` (stereo not shown) [Compound 70, 3-acetyl-8-bromo-5-chloro-2-((4-(trifluoromethyl)benzyl)sulfinyl)quinolin-4(1H)-one], for which the half-inhibitory concentration (IC50) in assay [1] is 1190 nM; in assay [2] (setting [3]) it was 920 nM; in assay [2] (setting [4]) it was 1320 nM; in assay [2] (setting [5]), 1540 nM; in assay [2] (setting [6]), 1190 nM; in assay [2] (setting [7]), > 10000 nM. In addition, the IC50 in assay [2] (setting [8]) is > 2000 nM; in assay [2] (setting [9]), > 2000 nM; in assay [2] (setting [10]), 1710 nM; in assay [2] (setting [11]) it was 1630 nM.

Source of the values: patent US11464770B2, “Anticancer pharmaceutical composition” (NATIONAL CANCER CENTER, priority 2016, dated 2022).
